The test system of experiment [1] is spontaneously hypertensive rats (SHR). Put plainly: Measurement of blood pressure by the tail-cuff method after a single oral dose. The format is in vivo, rat. The note with it: captopril 50 mg kg^−1 bw oral single dose, mean ± SEM, n = 6. On the procedure:
Male SHR (17–20 weeks old, weighing 350–400 g) were obtained from Charles River Laboratories España S.A. (Barcelona, Spain). The animals were singly housed in animal quarters at 22 °C with a 12 h light–dark period. They were fed with a standard diet based on chow Panlab A04 (Panlab, Barcelona, Spain) and had access to tap water ad libitum.
The SBP and DBP in the animals were measured using the tail‐cuff method 23 with a noninvasive BP system model (Letica, Hospitalet, Barcelona, Spain). The rats were given a single dose of 10 mg kg^−1 body weight (bw) of the synthesized peptides, including VGKPGARAPMY, QVGPLIGRYCG, AVFQHNCQE, LSGPVKF, or AVKILP, dissolved in tap water in a total volume of 1.5 mL. Peptides were administered to the SHR by gastric […] through an acute administration between 9 and 10 in the morning.
Positive control rats received 50 mg kg^−1 bw of captopril, a known ACE‐inhibitor, also dissolved in 1.5 mL of tap water, and the negative control rats received 1.5 mL of tap water. SBP was measured in the rats before peptide administration as well as 2, 4, 6, 8, and 24 h post‐administration. […] The changes in SBP and DBP were expressed as the differences in these variables before and after the administration of the different peptides. […]
Differences between treatments were analyzed by two‐way analysis of variance (two‐way ANOVA). […] Outliers were determined using Grubbs’ test. […]

Experiment [2] concerns the target T1, ACE (angiotensin I‐converting enzyme, EC 3.4.15.1) (Oryctolagus cuniculus, UniProt P12822).
T1 sequence (P12822 34-1310): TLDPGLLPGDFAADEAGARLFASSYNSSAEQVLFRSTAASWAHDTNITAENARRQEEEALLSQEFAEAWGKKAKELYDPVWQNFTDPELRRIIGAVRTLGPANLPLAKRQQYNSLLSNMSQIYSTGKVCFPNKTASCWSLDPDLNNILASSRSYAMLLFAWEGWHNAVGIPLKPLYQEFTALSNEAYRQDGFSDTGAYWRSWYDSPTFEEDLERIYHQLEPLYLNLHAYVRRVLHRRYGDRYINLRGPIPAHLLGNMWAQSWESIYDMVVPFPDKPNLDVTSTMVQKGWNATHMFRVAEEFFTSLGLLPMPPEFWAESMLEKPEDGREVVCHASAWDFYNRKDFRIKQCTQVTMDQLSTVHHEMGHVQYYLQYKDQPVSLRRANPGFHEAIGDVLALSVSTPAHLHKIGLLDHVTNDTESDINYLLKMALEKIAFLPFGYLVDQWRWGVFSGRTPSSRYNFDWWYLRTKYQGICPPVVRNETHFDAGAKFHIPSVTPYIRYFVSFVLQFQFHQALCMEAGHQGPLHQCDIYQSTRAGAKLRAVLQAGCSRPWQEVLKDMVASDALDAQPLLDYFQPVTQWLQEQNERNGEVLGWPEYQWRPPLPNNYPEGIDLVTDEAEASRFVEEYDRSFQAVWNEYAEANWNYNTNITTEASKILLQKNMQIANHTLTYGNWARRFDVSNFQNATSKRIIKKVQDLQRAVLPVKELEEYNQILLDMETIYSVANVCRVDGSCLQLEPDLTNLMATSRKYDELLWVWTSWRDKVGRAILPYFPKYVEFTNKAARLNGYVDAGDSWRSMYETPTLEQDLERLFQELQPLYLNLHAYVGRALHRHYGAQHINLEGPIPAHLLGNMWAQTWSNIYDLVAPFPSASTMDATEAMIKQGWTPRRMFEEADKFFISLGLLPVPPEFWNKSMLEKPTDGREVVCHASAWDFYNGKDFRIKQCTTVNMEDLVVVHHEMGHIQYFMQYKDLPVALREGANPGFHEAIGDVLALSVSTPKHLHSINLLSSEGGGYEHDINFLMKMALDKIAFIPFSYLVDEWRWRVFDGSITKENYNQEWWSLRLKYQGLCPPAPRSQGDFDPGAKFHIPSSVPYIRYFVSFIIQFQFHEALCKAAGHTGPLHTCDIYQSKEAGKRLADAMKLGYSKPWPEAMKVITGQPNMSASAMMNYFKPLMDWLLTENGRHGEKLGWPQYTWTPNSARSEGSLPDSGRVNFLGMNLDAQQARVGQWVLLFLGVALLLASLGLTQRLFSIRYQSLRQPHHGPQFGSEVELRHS
Kind of experiment: ACEI activity, fluorimetric assay with o-Abz-Gly-p-Phe(NO2)-Pro-OH. In kind it is biochemical. The note with it: synthetic peptides; concentration of peptide needed to inhibit 50 % of the original ACE activity. An excerpt: Chicken feet (Gallus gallus domesticus) were provided by a local farm (Granja Gaià, La Riera de Gaià, Spain). Protamex solutions (EC 3.4.21.62 and 3.4.24.28, 1.5 AU g^−1 from Bacillus licheniformis and Bacillus amyloliquefaciens) were kindly provided by Novozymes (Bagsværd, Denmark). ACE (angiotensin I‐converting enzyme, EC 3.4.15.1) was purchased from Sigma‐Aldrich (Madrid, Spain), captopril (PubChem CID: 44093) was purchased from Santa Cruz Biotechnology (Dallas, TX, USA) and o‐aminobenzoylglicil‐p‐nitrofenilalanilprolina (o‐Abz‐Gly‐p‐Phe(NO2)‐Pro‐OH) was provided by Bachem Feinchemikalien (Bubendorf, Switzerland). The synthesized peptides (LSETVV, LSGPVKF, AVKILP, VRWEPAPGPV, VGKPGARAPMY, QVGPLIGRYCG, LGIHPDWQFV, and AVFQHNCQE, purity grade ≥ 90 %) were purchased from Caslo Laboratory ApS (Kongens Lyngby, Denmark). Acetonitrile and trifluoroacetic acid were purchased from Sigma‐Aldrich. All other chemical solvents used were of analytical grade.
ACEI activity was measured according to Mas‐Capdevila et al.21 The fluorescence measurements were performed after 30 min in a multiscan microplate fluorimeter (FLUOstar optima, BMG Labtech, Offeuburg, Germany). The excitation and emission wavelengths were 360 and 400 nm, respectively. The software used to process the data was FLUOstar control (version 1.32 R2, BMG Labtech).
A nonlinear fit was performed on the experimental data to calculate the 50 % inhibitory concentration values (IC50) with the PRISM version 4.02 program for Windows (GraphPad Software, Inc. San Diego, CA, USA). ACEI activity was expressed as a percentage (%) or IC50 (µg µL^−1 solution). The determination of the ACEI activity of the samples was performed at least in duplicate. Data are represented as a mean value ± standard deviation (SD).
Protein content was determined by the bicinchoninic acid method using the standard Pierce BCA Protein Assay (ThermoFisher Scientific). The assay was conducted according to the manufacturer's instructions in a microplate format. A calibration standard curve was prepared with seroalbumin bovine. Determination of the protein content was performed at least in duplicate. The results are expressed as the mean ± SD.

The subject of experiment [3] is ACE. Also noted: method as in earlier work. The note with it: read-out: ACEI activity IC50 of fermented milk-derived peptides; cited from earlier work.

Ends that are not written are not given here.

Broadly, the IC50 is the concentration that inhibits the measured activity by half.

On to `C[C@H](CS)C(=O)N1CCC[C@H]1C(=O)O` [captopril], for which the “maximum decrease in DBP” value in experiment [1] (4 h post-administration) is recorded as −32.97 ± 8.80 mmHg. The “maximum decrease in SBP” value in experiment [1] (6 h post-administration) was −33.67 ± 1.94 mmHg. For the molecule AVFQHNCQE [AVFQHNCQE], in experiment [2], the IC50 stood at 44.8 µM. In the case of AVKILP [AVKILP], half-maximal inhibition in experiment [2] (IC50) was put at 7.1 µM. The molecule LGIHPDWQFV [LGIHPDWQFV] registered an IC50 in experiment [2] of more than 138 µM. For “LHLPLP [known antihypertensive fermented milk-derived peptide]”, the IC50 in experiment [3] was 5.5 µM. LSGPVKF [LSGPVKF] had an IC50 in experiment [2] of 80.9 µM. On the same count and under the same terms, the value for QVGPLIGRYCG [QVGPLIGRYCG] was 11 µM; that for VRWEPAPGPV [VRWEPAPGPV] was more than 150 µM.
